# In PubChem BioAssay (NCI):
#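 GI50 is the concentration that inhibits growth by half. At the TGI there is no net growth.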
# Tests used:
# Experiment in all cases: DTP human tumour cell line panel, 384-well format
# MDA-MB-468 breast = test system: MDA-MB-468 breast
# A549 NSCLC = test system: A549 NSCLC
# M14 melanoma = test system: M14 melanoma
# HT29 colon = test system: HT29 colon
# OVCAR-8 ovarian = test system: OVCAR-8 ovarian
# SK-OV-3 ovarian = test system: SK-OV-3 ovarian
# RPMI-8226 leukemia = test system: RPMI-8226 leukemia
# SF-539 CNS = test system: SF-539 CNS
# SF-295 CNS = test system: SF-295 CNS
# HOP-92 NSCLC = test system: HOP-92 NSCLC
# DU-145 prostate = test system: DU-145 prostate
# EKVX NSCLC = test system: EKVX NSCLC
# 786-0 renal = test system: 786-0 renal
# HCT-116 colon = test system: HCT-116 colon
# UACC-62 melanoma = test system: UACC-62 melanoma
# KM12 colon = test system: KM12 colon
# OVCAR-3 ovarian = test system: OVCAR-3 ovarian
# OVCAR-5 ovarian = test system: OVCAR-5 ovarian
# NCI-H522 lung = test system: NCI-H522 lung
# MDA-MB-231 breast = test system: MDA-MB-231 breast
# HCC-2998 colon = test system: HCC-2998 colon
# SNB-75 CNS = test system: SNB-75 CNS
# NCI-H460 NSCLC = test system: NCI-H460 NSCLC
# NCI-H23 lung = test system: NCI-H23 lung
# SK-MEL-28 melanoma = test system: SK-MEL-28 melanoma
# HCT-15 colon = test system: HCT-15 colon
# COLO 205 colon = test system: COLO 205 colon
# ACHN renal = test system: ACHN renal
# MALME-3M melanoma = test system: MALME-3M melanoma
smiles,measurement,setting,value
COC(=O)C[C@](O)(CCCC(C)(C)O)C(=O)O[C@@H]1C(OC)=C[C@]23CCCN2CCc2cc4c(cc2[C@H]13)OCO4,GI50,MDA-MB-468 breast,< 10 nM
same,TGI,MDA-MB-468 breast,19.9 nM
same,GI50,A549 NSCLC,18 nM
same,TGI,A549 NSCLC,115 nM
same,GI50,M14 melanoma,20.3 nM
same,TGI,M14 melanoma,41.6 nM
same,GI50,HT29 colon,21.4 nM
same,TGI,HT29 colon,66.3 nM
same,GI50,OVCAR-8 ovarian,25.9 nM
same,TGI,OVCAR-8 ovarian,66.8 nM
same,GI50,SK-OV-3 ovarian,26 nM
same,TGI,SK-OV-3 ovarian,172 nM
same,GI50,RPMI-8226 leukemia,< 10 nM
same,TGI,RPMI-8226 leukemia,15.5 nM
same,GI50,SF-539 CNS,17.2 nM
same,TGI,SF-539 CNS,33.3 nM
same,GI50,SF-295 CNS,26 nM
same,TGI,SF-295 CNS,55.9 nM
same,GI50,HOP-92 NSCLC,37.9 nM
same,TGI,HOP-92 NSCLC,102 nM
same,GI50,DU-145 prostate,29.9 nM
same,TGI,DU-145 prostate,85 nM
same,GI50,EKVX NSCLC,36.5 nM
same,TGI,EKVX NSCLC,201 nM
same,GI50,786-0 renal,26 nM
same,TGI,786-0 renal,147 nM
same,GI50,HCT-116 colon,< 10 nM
same,TGI,HCT-116 colon,88.7 nM
same,GI50,UACC-62 melanoma,31.8 nM
same,TGI,UACC-62 melanoma,107 nM
same,GI50,KM12 colon,27.5 nM
same,TGI,KM12 colon,183 nM
same,GI50,OVCAR-3 ovarian,13.8 nM
same,TGI,OVCAR-3 ovarian,41.1 nM
same,GI50,OVCAR-5 ovarian,48.9 nM
same,TGI,OVCAR-5 ovarian,806 nM
same,GI50,NCI-H522 lung,< 10 nM
same,TGI,NCI-H522 lung,17.3 nM
same,GI50,MDA-MB-231 breast,31.6 nM
same,TGI,MDA-MB-231 breast,105 nM
same,GI50,HCC-2998 colon,< 10 nM
same,TGI,HCC-2998 colon,25.3 nM
same,GI50,SNB-75 CNS,32.1 nM
same,TGI,SNB-75 CNS,78.9 nM
same,GI50,NCI-H460 NSCLC,< 10 nM
same,TGI,NCI-H460 NSCLC,17 nM
same,GI50,NCI-H23 lung,17.6 nM
same,TGI,NCI-H23 lung,36.9 nM
same,GI50,SK-MEL-28 melanoma,25.7 nM
same,TGI,SK-MEL-28 melanoma,62.5 nM
same,GI50,HCT-15 colon,47.7 nM
same,TGI,HCT-15 colon,233 nM
same,GI50,COLO 205 colon,25.9 nM
same,TGI,COLO 205 colon,120 nM
same,GI50,ACHN renal,43.2 nM
same,TGI,ACHN renal,304 nM
same,GI50,MALME-3M melanoma,15 nM
